Measurements from PubChem BioAssay AID624258 (Broad Institute, 2012).
Active and inactive are the calls of the source. The rule behind the calls is not given here.

These compounds were tested on S. cerevisiae SKN7-toxicity growth rescue, plate reader (assay: Yeast SKN7 toxicity growth rescue counterscreen, Saccharomyces cerevisiae, plate reader, dose confirmatory (AID 624258);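 note: growth read after three days of incubation at 30 °C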).
With `O=C(CSc1ccc(-c2ccccn2)nn1)NC1CCCCC1` the AC40 was 16.1 µM.
In the case of `N#CC1=C(N)NC(=S)C(C(N)=O)C1c1ccc(Cl)cc1Cl` (centres undefined), the AC40 is reported as 10.5 µM.
Work on `O=C1C=C(c2ccccc2)C(=O)N1Nc1ccccc1` yielded an AC40 of 1.15 µM.
`Cn1nc(C(F)(F)F)c(C#N)c1N1CCN(c2ccccc2)CC1` gave an AC40 of 17.6 µM.
`O=C(CCCNC(=O)c1ccc(Cl)cc1)OCc1cccc(Br)c1` was tested, and the AC40 was > 19.5 µM (inactive).
With `O=C1Nc2c(Cl)cc(Cl)cc2C1=O` the AC40 was > 19.5 µM (inactive).
`Cc1cc(C(=O)N/N=C/c2ccc(O)c(O)c2O)c(C)n1-c1ccccc1` gave an AC40 of 1.36 µM.
Work on `c1cncc(-c2nnc(-c3cccnc3)nn2)c1` yielded an AC40 of 8.28 µM.
With `COc1ccc(C(=O)c2c(C(F)(F)F)oc3c2C(=O)c2ccccc2C3=O)cc1OC` the AC40 was 14.3 µM.
For `c1ccc2c(-c3c[nH]c4ccccc34)c3ccccc3nc2c1`, the AC40 was 5.73 µM.
`COc1ccc(N=N/C(=C\O)C(=O)c2cccs2)cc1` was tested, and the AC40 was 1.32 µM.
`CC(C)CN(C(=O)c1cccc(S(=O)(=O)N2CCN(Cc3ccccc3)CC2)c1)C1CCS(=O)(=O)C1` (centres undefined) was tested, and the AC40 was 8.01 µM.
`c1ccc(Cn2cc(-c3cccnc3)cn2)cc1` showed an AC40 of 1.46 µM.
Compound `Cc1nc2c(nc1C)C(=O)c1ccccc1C2=O` has an AC40 of 13 µM.
